The results in this text go back to PMC12289521, “Ligand binding to a Ni–Fe cluster orchestrates conformational changes of the CO-dehydrogenase–acetyl-CoA synthase complex” (Nature Catalysis, 2025).

Experiment [1] has as its target T1, acetyl-CoA synthase (ACS) (Carboxydothermus hydrogenoformans, UniProt Q3ACS4).
T1 construct: gene acsB; CODH–ACS complex, heterologously expressed in E. coli; with CO-dehydrogenase (CODH)
T1 sequence (Q3ACS4 1-732): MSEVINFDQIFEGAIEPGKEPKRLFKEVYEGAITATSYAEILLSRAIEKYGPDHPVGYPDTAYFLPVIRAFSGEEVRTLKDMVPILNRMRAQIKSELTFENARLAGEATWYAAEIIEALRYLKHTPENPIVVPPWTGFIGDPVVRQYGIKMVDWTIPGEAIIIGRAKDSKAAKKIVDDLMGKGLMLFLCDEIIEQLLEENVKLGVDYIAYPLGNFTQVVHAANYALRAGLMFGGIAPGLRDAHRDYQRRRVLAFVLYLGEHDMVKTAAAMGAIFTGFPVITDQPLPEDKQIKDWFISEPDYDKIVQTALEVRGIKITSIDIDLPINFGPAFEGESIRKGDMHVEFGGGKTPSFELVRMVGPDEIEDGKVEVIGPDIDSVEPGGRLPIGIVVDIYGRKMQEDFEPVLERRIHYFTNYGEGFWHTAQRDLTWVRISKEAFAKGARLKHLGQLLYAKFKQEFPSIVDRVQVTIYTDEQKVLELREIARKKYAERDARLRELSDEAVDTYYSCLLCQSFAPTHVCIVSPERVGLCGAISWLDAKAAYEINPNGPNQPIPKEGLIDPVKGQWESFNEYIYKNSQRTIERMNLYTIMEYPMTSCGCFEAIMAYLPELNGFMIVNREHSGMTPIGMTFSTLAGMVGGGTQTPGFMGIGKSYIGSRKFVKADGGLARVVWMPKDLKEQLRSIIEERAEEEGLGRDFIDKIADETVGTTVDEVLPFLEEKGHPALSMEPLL
In words: ITC of CODH–ACS complex with […] Ti(III)–EDTA, […] °C. Format: binding.

For experiment [2], the target named is T1, acetyl-CoA synthase (ACS). Kind of experiment: ITC of methyl transfer to cluster A (two-substrate-two-product fit). It is filed as binding.

One may read the Kd as the free concentration of one partner at which half of the binding sites on the other are occupied at equilibrium, for simple one-to-one binding. Molecule `CC(C)(COP(=O)(O)OP(=O)(O)OC[C@H]1O[C@@H](n2cnc3c(N)ncnc32)[C@H](O)[C@@H]1OP(=O)(O)O)[C@@H](O)C(=O)NCCC(=O)NCCS` [CoA] gave an equilibrium dissociation constant (Kd) in experiment [1] below 88 µM.

In the case of methyl cobinamide, the “ITC of methyl transfer to cluster A (two-substrate-two-product fit)” value in experiment [2] is reported as 341.
